Legend:
Assay type in all cases: in vivo
[1] = tested on: Ipomoea hederifolia; assay: Control of Ipomoea hederifolia weed by asulam alone, with adjuvant, with additional herbicide (Example 1); details: 4500 g a.i/ha
Method: (§1) The effect of application of asulam alone, asulam along with an adjuvant, and asulam along with an additional herbicide was observed on the growth of Ipomoea hederifolia weed at 42, 49, 56 and 63 DAA (days after application). The percentage (%) control of weeds was evaluated to assess the efficacy of the compositions and the same has been disclosed in Table 1. Untreated control was also compared, wherein no herbicidal composition was applied and thus, no control of weeds was observed.

[2] = tested on: Raphanus raphanistrum; assay: Control of Raphanus raphanistrum weed by asulam alone, with adjuvant, with additional herbicide (Example 2); details: 4500 g a.i/ha
Method: as §1, with “Raphanus raphanistrum” for “Ipomoea hederifolia”, “2.” for “1.”

[3] = tested on: Avena strigose; assay: Control of Avena strigose weed by asulam alone, with adjuvant, with additional herbicide (Example 3); details: 4500 g a.i/ha
Method: as §1, with “Avena strigose” for “Ipomoea hederifolia”, “3.” for “1.”

[4] = tested on: Ambrosia artemisifolia; assay: Control of Ambrosia artemisifolia weed at different application rates (Example 4)
From the text: The effect of application of asulam was observed on the growth of Ambrosia artemisifolia weed at 28, 35 and 49 DAA (days after application) at different application rates. The percentage (%) control of weeds has been evaluated and disclosed in Table 4.

[5] = tested on: Megathyrsus maximus; assay: Control of Megathyrsus maximus weed at different application rates (Example 5)
From the text: The effect of application of asulam was observed on the growth of Megathyrsus maximus weed at 14 and 21 DAA (days after application) at different application rates. The percentage (%) control of weeds has been evaluated and disclosed in Table 5.

[6] = tested on: Ipomoea hederifolia; assay: Control of Ipomoea hederifolia weed at different application rates (Example 6)
From the text: The effect of application of asulam was observed on the growth of Ipomoea hederifolia weed at 21, 28 and 35 DAA (days after application) at different application rates. The percentage (%) control of weeds has been evaluated and disclosed in Table 6.

[7] = tested on: Raphanus raphanistrum; assay: Control of Raphanus raphanistrum weed at different application rates (Example 7)
From the text: The effect of application of asulam was observed on the growth of Raphanus raphanistrum weed at 14, 21 and 28 DAA (days after application) at different application rates. The percentage (%) control of weeds has been evaluated and disclosed in Table 7.

[8] = tested on: Avena strigose; assay: Control of Avena strigose weed at different application rates (Example 8)
From the text: The effect of application of asulam was observed on the growth of Avena strigose weed at 28, 35 and 49 DAA (days after application) at different application rates. The percentage (%) control of weeds has been evaluated and disclosed in Table 8.

[9] = tested on: Digitaria insularis; assay: Control of weeds at pre-emergence stage (Example 9)
From the text: The effect of application of asulam was observed on the growth of weeds at pre-emergence stage for different application rates. The percentage (%) control of weeds has been evaluated and disclosed in Table 9.

COC(=O)NS(=O)(=O)c1ccc(N)cc1 [Asulam, asulam]
Control of Ipomoea hederifolia ([1]; 42 DAA): 13.8% | Control of Ipomoea hederifolia ([1]; 49 DAA): 11.3% | Control of Ipomoea hederifolia ([1]; 56 DAA): 8.8% | Control of Raphanus raphanistrum ([2]; 42 DAA): 71.3% | Control of Raphanus raphanistrum ([2]; 49 DAA): 68.8% | Control of Raphanus raphanistrum ([2]; 56 DAA): 66.3% | Control of Avena strigose ([3]; 42 DAA): 47.5% | Control of Avena strigose ([3]; 49 DAA): 43.8% | Control of Avena strigose ([3]; 56 DAA): 37.5% | Control of Ambrosia Artemisifolia ([4]; 1200 g a.i/ha, 28 DAA): 86% | Control of Ambrosia Artemisifolia ([4]; 1200 g a.i/ha, 35 DAA): 87% | Control of Ambrosia Artemisifolia ([4]; 1200 g a.i/ha, 49 DAA): 90% | Control of Ambrosia Artemisifolia ([4]; 1500 g a.i/ha, 28 DAA): 91% | Control of Ambrosia Artemisifolia ([4]; 1500 g a.i/ha, 35 DAA): 90% | Control of Ambrosia Artemisifolia ([4]; 1500 g a.i/ha, 49 DAA): 91% | Control of Ambrosia Artemisifolia ([4]; 2250 g a.i/ha, 28 DAA): 93% | Control of Ambrosia Artemisifolia ([4]; 2250 g a.i/ha, 35 DAA): 94% | Control of Ambrosia Artemisifolia ([4]; 2250 g a.i/ha, 49 DAA): 99% | Control of Ambrosia Artemisifolia ([4]; 2500 g a.i/ha, 28 DAA): 92% | Control of Ambrosia Artemisifolia ([4]; 2500 g a.i/ha, 35 DAA): 93% | Control of Ambrosia Artemisifolia ([4]; 2500 g a.i/ha, 49 DAA): 99% | Control of Megathyrsus maximus ([5]; 3200 g a.i/ha, 14 DAA): 79% | Control of Megathyrsus maximus ([5]; 3200 g a.i/ha, 21 DAA): 85% | Control of Megathyrsus maximus ([5]; 3600 g a.i/ha, 14 DAA): 80% | Control of Megathyrsus maximus ([5]; 3600 g a.i/ha, 21 DAA): 86% | Control of Megathyrsus maximus ([5]; 4000 g a.i/ha, 14 DAA): 76% | Control of Megathyrsus maximus ([5]; 4000 g a.i/ha, 21 DAA): 85% | Control of Ipomoea hederifolia ([6]; 1800 g a.i/ha, 21 DAA): 63% | Control of Ipomoea hederifolia ([6]; 1800 g a.i/ha, 28 DAA): 77% | Control of Ipomoea hederifolia ([6]; 1800 g a.i/ha, 35 DAA): 76% | Control of Ipomoea hederifolia ([6]; 2250 g a.i/ha, 21 DAA): 71% | Control of Ipomoea hederifolia ([6]; 2250 g a.i/ha, 28 DAA): 83% | Control of Ipomoea hederifolia ([6]; 2250 g a.i/ha, 35 DAA): 85% | Control of Ipomoea hederifolia ([6]; 2500 g a.i/ha, 21 DAA): 70% | Control of Ipomoea hederifolia ([6]; 2500 g a.i/ha, 28 DAA): 84% | Control of Ipomoea hederifolia ([6]; 2500 g a.i/ha, 35 DAA): 88% | Control of Raphanus raphanistrum ([7]; 1800 g a.i/ha, 14 DAA): 61% | Control of Raphanus raphanistrum ([7]; 1800 g a.i/ha, 21 DAA): 69% | Control of Raphanus raphanistrum ([7]; 1800 g a.i/ha, 28 DAA): 82% | Control of Raphanus raphanistrum ([7]; 2250 g a.i/ha, 14 DAA): 63% | Control of Raphanus raphanistrum ([7]; 2250 g a.i/ha, 21 DAA): 73% | Control of Raphanus raphanistrum ([7]; 2250 g a.i/ha, 28 DAA): 84% | Control of Raphanus raphanistrum ([7]; 2500 g a.i/ha, 14 DAA): 66% | Control of Raphanus raphanistrum ([7]; 2500 g a.i/ha, 21 DAA): 77% | Control of Raphanus raphanistrum ([7]; 2500 g a.i/ha, 28 DAA): 88% | Control of Avena strigose ([8]; 1200 g a.i/ha, 28 DAA): 81% | Control of Avena strigose ([8]; 1200 g a.i/ha, 35 DAA): 84% | Control of Avena strigose ([8]; 1200 g a.i/ha, 49 DAA): 81% | Control of Avena strigose ([8]; 1500 g a.i/ha, 28 DAA): 86% | Control of Avena strigose ([8]; 1500 g a.i/ha, 35 DAA): 89% | Control of Avena strigose ([8]; 1500 g a.i/ha, 49 DAA): 89% | Control of Avena strigose ([8]; 1800 g a.i/ha, 28 DAA): 96% | Control of Avena strigose ([8]; 1800 g a.i/ha, 35 DAA): 99% | Control of Avena strigose ([8]; 1800 g a.i/ha, 49 DAA): 99% | Control of Avena strigose ([8]; 2250 g a.i/ha, 28 DAA): 95% | Control of Avena strigose ([8]; 2250 g a.i/ha, 35 DAA): 100% | Control of Avena strigose ([8]; 2250 g a.i/ha, 49 DAA): 100% | Control of Avena strigose ([8]; 2500 g a.i/ha, 28 DAA): 98% | Control of Avena strigose ([8]; 2500 g a.i/ha, 35 DAA): 100% | Control of Avena strigose ([8]; 2500 g a.i/ha, 49 DAA): 100% | percentage (%) control of weeds ([9]; 1000 g a.i/ha, 28 DAA): 94% | percentage (%) control of weeds ([9]; 1000 g a.i/ha, 35 DAA): 98% | percentage (%) control of weeds ([9]; 1000 g a.i/ha, 49 DAA): 100% | percentage (%) control of weeds ([9]; 1200 g a.i/ha, 28 DAA): 98% | percentage (%) control of weeds ([9]; 1200 g a.i/ha, 35 DAA): 100% | percentage (%) control of weeds ([9]; 1200 g a.i/ha, 49 DAA): 100% | percentage (%) control of weeds ([9]; 1500 g a.i/ha, 28 DAA): 99%

— patent US20260248134A1, “A METHOD FOR CONTROLLING WEEDS” (UPL MAURITIUS LIMITED, priority 2023, published 2026)
